Experiments:
Type in all cases: biochemical
[1] = molecular target: T1, VIM-2 metallo β-lactamase (Pseudomonas aeruginosa, UniProt Q9K2N0); assay: β-Lactamase inhibition enzyme assay, VIM-2; conditions: Nitrocefin 100 μM as substrate, 486 nm; 15 min at 37° C. with enzyme, PBS pH 7.4; read-out: Class B VIM-2 IC50
T1 construct: made in house; host or cells: E. coli BL21(DE3)
Protocol: (§1) For SHV-5, Kpc-2, p99AmpC and OXA-1 β-lactamases, E. coli BL21(DE3) bacterial cells carrying expression plasmids (expressed as native untagged proteins) for the individual β-lactamases were grown in 1 L of Superbroth (Teknova Inc. Hollister, Calif.) supplemented with 100 μg/ml kanamycin selection and 1×5052 (0.5% glycerol, 0.05% glucose and 0.2% α-lactose) at 35° C. for 18-20 hours. Cells were harvested by centrifugation (4,000×g, 4° C., 20 min), resuspended in 50 ml of 10 mM HEPES pH 7.5 ( 1/20 of the initial volume). The cells were lysed by sonication (5 pulses of 45 seconds) at 45 W on ice. The lysates were clarified by centrifugation at 10,000×g for 40 minutes at 4° C. Samples were diluted 5-fold in 50 mM sodium acetate pH 5.0, stored overnight at 4° C., after which they were centrifuged at 10,000×g for 30 minutes to clarify, and filtered through 0.45 μm filters. The samples were loaded onto a 5 ml Capto S sepharose cation exchange column (GE Healthcare) pre-equilibrated with 50 mM sodium acetate pH 5.0. The column was washed with 5 column volumes of 50 mM sodium acetate pH 5.0 to wash out unbound protein and a linear gradient of NaCl (0 to 500 mM) was used to elute the protein (over 16 CV) from the column. Fractions were assayed for β-lactamase activity using Centa (Calbiochem, Gibbstown, N.J.) or Nitrocefin (EMD Millipore chemicals, Darmstadt, Germany) as a reporter β-lactamase substrate for activity in the isolated fractions. Active fractions were pooled, concentrated and further purified by gel filtration chromatography on a Superdex 75 prep grade gel filtration column (GE Healthcare, Piscataway, N.J.) pre-equilibrated in 50 mM Hepes pH 7.5, 150 mM NaCl. Active fractions were pooled concentrated, quantitated by BCA protein determination (Thermo Scientific, Rockford, Ill.), dialyzed into PBS and frozen at −80° C. in 20% glycerol until use.
For Vim-2 metallo β-lactamase, the procedure was identical with the following exceptions, first the protein was not pH adjusted to pH 5 with 50 mM sodium acetate, second, the chromatography step was changed to a 5 ml Q sepharose anion exchange column pre-equilibrated with 50 mM Hepes pH 7.5, and elution of the protein was achieved by a linear gradient of NaCl (0-600 mM). Finally, the VIM-2 purification required a second run (3rd step) on the Q sepharose anion exchange column to achieve acceptable purity (>90%).
(§2) An equal volume of diluted enzyme stock was added, and the plates were incubated at 37° C. for 15 min. Nitrocefin was used as substrate for p99 AmpC, VIM-2 and OXA-1 and dispensed into each well at a final concentration of 100 μM. Absorbance at 486 nm was immediately monitored for 10 min using a Biotek Powerwave XS2 microplate spectrophotometer using the GEN5 softweare package (Biotek Instruments, Winooski Vt.). In an analogous fashion, imipenem was used as substrate for Kpc-2 and Cefotaxime was used for SHV-5, while changes in absorbance upon hydrolysis of the β-lactam ring were monitored at 300 nm and 260 nm respectively in UV-transparent 96-well microtiter assay plates. Maximum rates of hydrolysis were compared to those in control wells (without inhibitors), and percentages of enzyme inhibition were calculated for each concentration of inhibitor. The concentration of inhibitor needed to reduce the initial rate of hydrolysis of substrate by 50% (IC50) was calculated as the residual activity of β-lactamase at 486 nm using GraFit version 7 kinetics software package (Erithacus Software, Surrey, UK).

p99 AmpC β-lactamase = molecular target: T2, p99 AmpC β-lactamase (Enterobacter cloacae, UniProt P05364); assay: β-Lactamase inhibition enzyme assay, p99 AmpC
T2 construct: made in house; host or cells: E. coli BL21(DE3)
Protocol: as §1, §2

KPC-2 β-lactamase = molecular target: T3, KPC-2 β-lactamase (Klebsiella pneumoniae, UniProt Q9F663); assay: β-Lactamase inhibition enzyme assay, KPC-2; conditions: imipenem as substrate, 300 nm; 15 min at 37° C. with enzyme, PBS pH 7.4; read-out: Class A KPC-2 IC50
T3 construct: made in house; host or cells: E. coli BL21(DE3)
Protocol: as §1, §2

SHV-5 β-lactamase = molecular target: T4, SHV-5 β-lactamase (Klebsiella pneumoniae, UniProt P0A3M1); assay: β-Lactamase inhibition enzyme assay, SHV-5
T4 construct: made in house; host or cells: E. coli BL21(DE3)
Protocol: as §1, §2

OXA-1 β-lactamase = molecular target: T5, OXA-1 β-lactamase (Escherichia coli, UniProt P13661); assay: β-Lactamase inhibition enzyme assay, OXA-1; conditions: Nitrocefin 100 μM as substrate, 486 nm; 15 min at 37° C. with enzyme, PBS pH 7.4; read-out: Class D OXA-1 IC50
T5 construct: made in house; host or cells: E. coli BL21(DE3)
Protocol: as §1, §2

T4 sequence (P0A3M1 22-286): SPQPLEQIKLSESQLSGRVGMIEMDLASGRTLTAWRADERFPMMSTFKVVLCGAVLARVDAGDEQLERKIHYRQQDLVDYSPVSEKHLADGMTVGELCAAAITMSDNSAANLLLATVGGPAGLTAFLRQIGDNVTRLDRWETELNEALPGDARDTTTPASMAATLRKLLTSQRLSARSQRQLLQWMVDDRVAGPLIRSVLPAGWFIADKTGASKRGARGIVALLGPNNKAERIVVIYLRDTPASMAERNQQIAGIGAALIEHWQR
T5 sequence (P13661 26-276): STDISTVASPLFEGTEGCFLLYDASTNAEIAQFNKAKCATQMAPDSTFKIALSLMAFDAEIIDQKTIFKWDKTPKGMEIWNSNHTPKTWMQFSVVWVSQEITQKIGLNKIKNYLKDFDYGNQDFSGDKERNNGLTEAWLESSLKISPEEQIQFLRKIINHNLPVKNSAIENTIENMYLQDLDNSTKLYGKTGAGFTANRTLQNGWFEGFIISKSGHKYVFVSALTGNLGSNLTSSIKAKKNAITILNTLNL
T3 sequence (Q9F663 25-293, looked up): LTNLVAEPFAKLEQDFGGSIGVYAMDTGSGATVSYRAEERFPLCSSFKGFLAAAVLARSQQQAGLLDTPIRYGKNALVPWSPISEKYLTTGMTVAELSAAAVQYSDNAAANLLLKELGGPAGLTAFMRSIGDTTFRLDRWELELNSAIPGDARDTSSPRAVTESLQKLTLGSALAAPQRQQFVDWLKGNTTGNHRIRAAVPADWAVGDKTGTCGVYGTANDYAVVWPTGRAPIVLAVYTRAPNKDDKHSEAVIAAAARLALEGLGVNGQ
T2 sequence (P05364 21-381): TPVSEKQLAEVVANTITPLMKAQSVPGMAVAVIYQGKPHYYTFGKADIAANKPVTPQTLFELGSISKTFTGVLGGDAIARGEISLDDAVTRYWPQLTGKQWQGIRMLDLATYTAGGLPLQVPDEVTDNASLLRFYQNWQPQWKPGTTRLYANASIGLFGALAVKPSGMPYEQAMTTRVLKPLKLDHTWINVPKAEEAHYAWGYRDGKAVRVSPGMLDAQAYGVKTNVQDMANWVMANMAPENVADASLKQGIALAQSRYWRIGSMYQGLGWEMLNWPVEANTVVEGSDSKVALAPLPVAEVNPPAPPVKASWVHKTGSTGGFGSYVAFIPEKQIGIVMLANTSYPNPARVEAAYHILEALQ

SMILES	IC50 [1] [nM]	IC50 (p99 AmpC β-lactamase) [nM]	IC50 (KPC-2 β-lactamase) [nM]	IC50 (SHV-5 β-lactamase) [nM]	IC50 (OXA-1 β-lactamase) [nM]
O=C(O)c1cccc2c1OB(O)[C@@H](NC(=O)c1cccc3cc[nH]c13)C2 [Example 31, (R)-2-hydroxy-3-(1H-indole-7-carboxamido)-3,4-dihydro-2H-benzo[e][1,2]oxaborinine-8-carboxylic acid]	1000 to 10000	< 100	< 100	100 to 1000	< 100
NC1=Nc2cc(C(=O)N[C@H]3Cc4cccc(C(=O)O)c4OB3O)ccc2CN1 [Example 15, (R)-3-(2-amino-3,4-dihydroquinazoline-7-carboxamido)-2-hydroxy-3,4-dihydro-2H-benzo[e][1,2]oxaborinine-8-carboxylic acid]	1000 to 10000	< 100	100 to 1000	< 100	100 to 1000
O=C(Cc1ccc2c(c1)CNCC2)N[C@H]1Cc2cccc(C(=O)O)c2OB1O [Example 51, (R)-2-Hydroxy-3-(2-1,2,3,4-tetrahydro-isoquinolin-7-yl-acetylamino)-3,4-dihydro-2H-benzo[e][1,2]oxaborinine-8-carboxylic acid]	< 100	< 100	< 100	< 100	< 100
CC(C)NCc1cc(C(=O)N[C@H]2Cc3cccc(C(=O)O)c3OB2O)ccc1CN [Example 55, (R)-3-(4-(aminomethyl)-3-((isopropylamino)methyl)benzamido)-2-hydroxy-3,4-dihydro-2H-benzo[e][1,2]oxaborinine-8-carboxylic acid]	100 to 1000	100 to 1000	1000 to 10000	100 to 1000	100 to 1000
NCCNc1ccc(CC(=O)N[C@H]2Cc3cccc(C(=O)O)c3OB2O)c[n+]1[O-] [Example 61, (R)-2-(2-aminoethylamino)-5-(2-(8-carboxy-2-hydroxy-3,4-dihydro-2H-benzo[e][1,2]oxaborinin-3-ylamino)-2-oxoethyl)pyridine 1-oxide]	100 to 1000	< 100	< 100	< 100	< 100
NCc1cc(C(=O)N[C@H]2Cc3cccc(C(=O)O)c3OB2O)cnc1CN [Example 62, (R)-3-(5,6-bis(aminomethyl)nicotinamido)-2-hydroxy-3,4-dihydro-2H-benzo[e][1,2]oxaborinine-8-carboxylic acid]	100 to 1000	< 100	< 100	< 100	< 100
O=C(N[C@H]1Cc2cccc(C(=O)O)c2OB1O)c1ccc2c(c1)CN(Cc1cccnc1)C2 [Example 12, (R)-2-hydroxy-3-(2-(pyridin-3-ylmethyl)isoindoline-5-carboxamido)-3,4-dihydro-2H-benzo[e][1,2]oxaborinine-8-carboxylic acid]	100 to 1000	< 100	< 100	< 100	< 100
NC1=NCc2ccc(C(=O)N[C@H]3Cc4cccc(C(=O)O)c4OB3O)cc2CN1 [Example 17, (R)-3-(3-amino-4,5-dihydro-1H-benzo[e][1,3]diazepine-7-carboxamido)-2-hydroxy-3,4-dihydro-2H-benzo[e][1,2]oxaborinine-8-carboxylic acid]	< 100	< 100	< 100	< 100	< 100
O=C(O)c1cccc2c1OB(O)[C@@H](NC(=O)c1cccc3[nH]ccc13)C2 [Example 32, (R)-2-Hydroxy-3-[(1H-indole-4-carbonyl)-amino]-3,4-dihydro-2H-benzo[e][1,2]oxaborinine-8-carboxylic acid]	100 to 1000	< 100	< 100	< 100	< 100
N=C(N)NCc1ccc(C(=O)N[C@H]2Cc3cccc(C(=O)O)c3OB2O)cc1CNC(=N)N [Example 25, (R)-3-(3,4-bis(guanidinomethyl)benzamido)-2-hydroxy-3,4-dihydro-2H-benzo[e][1,2]oxaborinine-8-carboxylic acid]	< 100	< 100	< 100	100 to 1000	100 to 1000
N=C(N)NCc1cc(CNC(=N)N)cc(C(=O)N[C@H]2Cc3cccc(C(=O)O)c3OB2O)c1 [Example 45, (R)-3-(3,5-bis(guanidinomethyl)benzamido)-2-hydroxy-3,4-dihydro-2H-benzo[e][1,2]oxaborinine-8-carboxylic acid]	< 100	< 100	< 100	100 to 1000	< 100
NCCOc1ccc(C(=O)N[C@H]2Cc3cccc(C(=O)O)c3OB2O)cc1O [Example 40, (R)-3-(4-(2-aminoethoxy)-3-hydroxybenzamido)-2-hydroxy-3,4-dihydro-2H-benzo[e][1,2]oxaborinine-8-carboxylic acid]	< 100	< 100	< 100	100 to 1000	< 100
NCc1cnc(C(=O)N[C@H]2Cc3cccc(C(=O)O)c3OB2O)cc1CN [Example 63]	< 100	< 100	< 100	100 to 1000	< 100
O=C(O)c1cccc2c1OB(O)[C@@H](NC(=O)C1(c3ccccc3)CC1)C2 [Example 1, (R)-2-hydroxy-3-(1-phenylcyclopropanecarboxamido)-3,4-dihydro-2H-benzo[e][1,2]oxaborinine-8-carboxylic acid]	100 to 1000	< 100	< 100	< 100	< 100
O=C(N[C@H]1Cc2cccc(C(=O)O)c2OB1O)c1ccc2[nH]ccc2c1 [Example 26, (R)-2-hydroxy-3-(1H-indole-5-carboxamido)-3,4-dihydro-2H-benzo[e][1,2]oxaborinine-8-carboxylic acid]	100 to 1000	< 100	< 100	< 100	< 100
O=C(N[C@H]1Cc2cccc(C(=O)O)c2OB1O)c1ccc2ncccc2c1 [Example 28, (R)-2-hydroxy-3-(quinoline-6-carboxamido)-3,4-dihydro-2H-benzo[e][1,2]oxaborinine-8-carboxylic acid]	1000 to 10000	< 100	< 100	< 100	< 100
Cc1ccc(C(=O)N[C@H]2Cc3cccc(C(=O)O)c3OB2O)cc1NC(=O)[C@@H](N)CN [Example 22, (R)-3-(3-((S)-2,3-diaminopropanamido)-4-methylbenzamido)-2-hydroxy-3,4-dihydro-2H-benzo[e][1,2]oxaborinine-8-carboxylic acid]	100 to 1000	< 100	100 to 1000	1000 to 10000	< 100
N=C(N)N1Cc2ccc(CC(=O)N[C@H]3Cc4cccc(C(=O)O)c4OB3O)cc2C1 [Example 37, (3R)-3-[[2-(2-carbamimidoylisoindolin-5-yl)acetyl]amino]-2-hydroxy-3,4-dihydro-1,2-benzoxaborinine-8-carboxylic acid]	100 to 1000	< 100	< 100	< 100	< 100

Source: patent US9376454B2, “Beta-lactamase inhibitors” (priority 2013, dated 2016)
